Earlier results as cited in patent US8664239B2, “Tacrolimus for improved treatment of transplant patients” (Veloxis Pharmaceuticals A/S, priority 2007, dated 2014).
Like-named read-outs stand apart in the source and are kept apart here.

Assays:
[1] = not given; remark: listed apart in the source

In the case of `C=CC[C@@H]1/C=C(\C)C[C@H](C)C[C@H](OC)[C@H]2O[C@@](O)(C(=O)C(=O)N3CCCC[C@H]3C(=O)O[C@H](/C(C)=C/[C@@H]3CC[C@@H](O)[C@H](OC)C3)[C@H](C)[C@@H](O)CC1=O)[C@H](C)C[C@@H]2OC` [Tacrolimus], the solubility (in chloroform) is listed as “very soluble”, the solubility (in ethanol) is listed as “freely soluble” and the solubility (in methanol) is listed as “very soluble”. For the same compound, the solubility (in water) was “practically insoluble”, the bioavailability ([1]; after oral administration) was at most 20% and the “mean time-to-peak concentration (tmax)” value ([1]; oral administration, healthy subjects or kidney or liver transplanted patients) was 1 to 2 h.
